Reference: PubChem BioAssay AID1963827 (Molecular Pharmacology Branch, DTP, NCI, 2024)
Several values for one entry are separate records, joined by “and”; a condition that tells them apart may be missing. Equal values may be shown once.

Tested on: 994946-033-R-J1-PDC complex spheroid viability
Assay: Anticancer human tumor 994946-033-R-J1-PDC patient-derived melanoma cell line growth inhibition [POLQ]
Details: for viability, T/C: stronger effect = lower value
Description: Multicellular complex tumor spheroid response to Polymerase (POL) inhibitors (novobiocin, ART-558, RP6685) in combination with a variety of drugs and investigational agents in selected tumor cell lines
The POL inhibitors (novobiocin, ART-558, and RP6685) were evaluated both individually and in combination with standard of care and investigational anticancer small molecules within a complex spheroid model of solid tumors. . Complex spheroids include a stromal component modeled by human endothelial cells (HUVEC) and fibroblasts modeled by human mesenchymal stem cells (MSCs). The concentration ranges selected for each drug and investigational agent were based upon clinically achievable concentrations if the clinical Cmax of the agent was known.
Compounds. The drugs and investigational agents: novobiocin (NSC847541), ART-558 (NSC835418), RP-6685 (NSC848927), peposertib (NSC802822), ceralasertib (NSC780249), elimusertib (NSC800525), camonsertib (NSC841442), AZD-1390 (NSC803789), olaparib (NSC753686), talazoparib (NSC767125), rucaparib (NSC756644), sotorasib (NSC818433), MRTX-1133 (NSC836407), SN-38 (NSC673596), topotecan (NSC609699), epotoside (NSC141540), doxorubicin (NSC123127), gemcitabine (NSC613327), 5-fluorouracil (NSC19893), paclitaxel (NSC125973), vemurafenib (NSC761431), MSA-2 (NSC828583), SN-011 (NSC837082), adavosertib (NSC754352), prexasertib (NSC758257), carboplatin (NSC241240) and oxaliplatin (NSC266046), were obtained from the National Cancer Institute (NCI) Developmental Therapeutics Program Chemical Repository (21). The FDA-approved anticancer drug set is available from the Developmental Therapeutics Program at https://dtp.cancer.gov/organization/dscb/obtaining/. […] The stock solutions were prepared in dimethyl sulfoxide (DMSO, Sigma-Aldrich, St. Louis, MO, cat. D2650), except for the platinum compounds which were prepared in saline (Quality Biological, Gaithersburg, MD, cat. 114-055-101), at 800-fold the tested concentration and stored at -70 degrees C prior to their use. All drugs and investigational agents were tested over a range starting from a high concentration at or near the clinical Cmax and decreasing in half-log increments. If the clinical Cmax for an agent had not been determined, the highest concentration tested was 10 microM, except for SN-38, which was tested at a high concentration of 1 microM.
Cell Culture. All cells were maintained in an incubator at 37 degrees C and 5% CO2 with 95% humidity. The PDC lines were cultured according to standard operating procedures established by the NCI PDMR (https://pdmr.cancer.gov). Table 3 of the manuscript, lists the cell lines along with the number of the three cell types plated to form the mct-spheroids and media for tumor cell growth. After thawing, all PDC lines, except 997537-175-T-J1-PDC and 415267-285-R-J2-PDC, were cultured in Matrigel-coated flasks prepared with a working solution of 1X Ham's F-12 nutrient mix, without supplementation (Thermo Fisher Scientific, cat. 11765054), 100 U/mL penicillin-streptomycin (Thermo Fisher Scientific, cat. 15140122), and 2.5% Matrigel (Corning Inc., Corning, NY, cat. 354248) for the first three passages. The two PDC lines 997537-175-T-J1-PDC and 415267-285-R-J2-PDC were cultured on uncoated flasks. The 857933-349-R-J2-PDC line was cultured in 6C/Colon 1B media containing advanced DMEM/F-12 (Thermo Fisher Scientific, cat. 12634028), 10 mM HEPES (Thermo Fisher Scientific, cat. 15630080), 1X GlutaMAX supplement (Thermo Fisher Scientific, cat. 35050061), 0.1 mg/mL primocin (InvivoGen, San Diego, CA, cat. ant-pm-2), 10% defined fetal bovine serum, heat inactivated (HyClone Laboratories Inc., Logan, UT, cat. SH30070.03HI), 50% L-WRN conditioned media (ATCC, cat. CRL-3276), 1.25 mM N-Acetyl-L-cysteine (Sigma-Aldrich, cat. A9165), 10 mM nicotinamide (Sigma-Aldrich, cat. N0636), 1X B-27 supplement (Thermo Fisher Scientific, cat. 17504044), 1X N-2 supplement (Thermo Fisher Scientific, cat. […]

[1] = compound alone, run of 10/31/2023
[2] = compound alone, run of 11/06/2023
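Also: spheroids exposed to drugs for 7 days.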
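For viability, T/C in this document: 100% = DMSO vehicle treated spheroids.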

SMILES	viability, T/C (compound 0.0316 µM)	viability, T/C (compound 0.1 µM)	viability, T/C (compound 0.316 µM)	viability, T/C (compound 1 µM)	viability, T/C (compound 3.16 µM)	viability, T/C (compound 10 µM)	IC50 (curve of compound)	IC50 [1] [µM]	viability, T/C (compound 0.00316 µM)	viability, T/C (compound 0.01 µM)	IC50 [2] [µM]	viability, T/C (compound 0.000316 µM)	viability, T/C (compound 0.001 µM)
CCc1cc2c(N3CCc4c(cc(Cn5ccnc5)cc4-c4cn(C)nc4C(F)(F)F)C3=O)ccnc2c(OC)n1	89.4% and 91.8% and 73.3%	85.4% and 86.5% and 82.3%	85.9% and 66.4% and 74.3%	88.4% and 84% and 76.2%	80.5% and 83.7% and 102%	76% and 62.5% and 43%	> 10 µM and 8.11 µM	–	–	–	–	–	–
CNCc1ccc(-c2[nH]c3cc(F)cc4c3c2CCNC4=O)cc1	90.6% and 92.2% and 105%	111% and 79.6% and 87%	112% and 90% and 90.3%	107% and 83.3% and 103%	110% and 98.3% and 105%	93.4% and 76.8% and 66.9%	> 10 µM	–	–	–	–	–	–
COC1C(OC(N)=O)C(O)C(Oc2ccc3c(O)c(NC(=O)c4ccc(O)c(CC=C(C)C)c4)c(=O)oc3c2C)OC1(C)C (stereo not given)	–	–	–	–	–	–	–	> 10	–	–	–	–	–
COc1cc(C2c3cc4c(cc3C(OC3OC5COC(C)OC5C(O)C3O)C3COC(=O)C23)OCO4)cc(OC)c1O (stereo not given)	92.1% and 89.8% and 87.4%	56.1% and 74.7% and 56.7%	42.6% and 37.3% and 54.9%	36.4% and 29.4% and 38.1%	15% and 14.1% and 14.8%	5.65% and 9.75% and 6.75%	0.212 µM and 0.24 µM and 0.313 µM	–	–	–	–	–	–
COc1cc2cc(C(=O)CCC(=O)O)sc2cc1OC	75.1% and 90.9% and 96.1%	84.1% and 72% and 94.5%	85.4% and 111% and 76.8%	88.2% and 64.1% and 113%	96% and 104% and 75.2%	95.3% and 89.2% and 61.4%	> 10 µM	–	–	–	–	–	–
COc1ccc([C@@H](O)c2cc(-c3ncnc4cc(N5CCOCC5)ccc34)c(F)cc2Cl)nn1	115% and 94.1% and 79.4%	91.2% and 92.7% and 91%	81.5% and 95.9% and 99.5%	49.6% and 78.9% and 67.1%	59.4% and 74.8% and 59%	43.6% and 27.3% and 43.8%	4.11 µM and 5.57 µM and > 10 µM	–	–	–	–	–	–
COc1cccc(OCCCN)c1-c1cc(Nc2cnc(C#N)cn2)n[nH]1	14.7% and 28.4% and 65.5%	29.1% and 32.4% and 35.9%	28.6% and 28.5% and 17.2%	16.6% and 16.5% and 12.6%	–	–	0.0137 µM and 0.0197 µM and 0.0575 µM	–	75.6% and 100% and 79.2%	60.5% and 80.8% and 75.1%	–	–	–
COc1cccc2c1C(=O)c1c(O)c3c(c(O)c1C2=O)CC(O)(C(=O)CO)CC3OC1CC(N)C(O)C(C)O1 (stereo not given)	24.5% and 30.4% and 28.5%	5.96% and 8.53% and 11.6%	2.17% and 5.76% and 2.69%	1.78% and 1.25% and 2.38%	2.29% and 1.69% and 2.17%	2.7% and 0.94% and 0.62%	< 0.0316 µM	–	–	–	–	–	–
Cc1cccc(N(C)C(=O)C2C(O)CCN2c2nc(C)cc(C(F)(F)F)c2C#N)c1 (stereo not given)	–	93.6% [middle of 13 runs]	–	–	–	–	–	> 10	–	–	> 10	–	–
Cn1ncnc1[C@H]1c2n[nH]c(=O)c3cc(F)cc(c23)N[C@@H]1c1ccc(F)cc1	87.1% and 53.5% and 66.7%	65.3% and 44.1% and 65.5%	–	–	–	–	> 0.1 µM and 0.0619 µM	–	69.9% and 79.6% and 106%	104% and 80% and 82.1%	–	118% and 108% and 103%	82.7% and 80.6% and 106%
Nc1ccc(C#CCN(C(=O)Cc2ncc(C(F)(F)F)cc2C(F)(F)F)c2ccc(F)cc2)nn1	–	–	–	–	–	94.6% [middle of 13 runs]	–	–	–	–	> 10	–	–
Nc1ccn(C2OC(CO)C(O)C2(F)F)c(=O)n1 (stereo not given)	26% and 34.1% and 24.7%	4.77% and 7.08% and 7.51%	5.46% and 6.51% and 7.23%	6.12% and 6.87% and 8.28%	4.43% and 9.96% and 4.73%	1.87% and 3.82% and 1.78%	< 0.0316 µM	–	–	–	–	–	–
O=C(Nc1ccc(O)c(NS(=O)(=O)c2ccc(F)cc2)c1)c1ccc(-c2ccccc2)cc1	68.8% and 116% and 90.9%	87.8% and 77.9% and 78.2%	83.3% and 91.7% and 96%	80.3% and 100% and 96.6%	89.9% and 85.7% and 90.8%	39% and 46.8% and 25.6%	7.46 µM and 9.19 µM and 6.49 µM	–	–	–	–	–	–
O=C(c1cc(Cc2n[nH]c(=O)c3ccccc23)ccc1F)N1CCN(C(=O)C2CC2)CC1	98.7% and 77.9% and 85.7%	94% and 103% and 89.2%	101% and 90.9% and 80.3%	91.5% and 88.8% and 54.5%	63.4% and 55.2% and 62.6%	32.4% and 33.3% and 36.9%	5.19 µM and 4.15 µM and 4.32 µM	–	–	–	–	–	–
O=c1[nH]cc(F)c(=O)[nH]1	115% and 112% and 96.8%	95.1% and 107% and 103%	71.1% and 97.4% and 103%	63.1% and 67.9% and 60.2%	50.7% and 73.6% and 64%	45.7% and 47.6% and 54.8%	4.22 µM and > 10 µM	–	–	–	–	–	–
